Measured values taken from ChEMBL document CHEMBL1201862, “PubChem BioAssay data set” (2004).
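The compound was tested at five concentrations on cells cultured in 96-well plates, with a 48-hour exposure period. Here, GI50 denotes the concentration required for 50% inhibition of growth.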 Active and inactive are the calls of the source. No stated cut-off is given here; in the data, active = GI50 up to about 1.1 µM and inactive = higher.

Columns and labels:
Assay in all cases: NCI-60 cell line screen, 48 h
HL-60 = test system: HL-60
A498 = test system: A498
A549 = test system: A549
BT-549 = test system: BT-549
UACC-257 = test system: UACC-257
OVCAR-3 = test system: OVCAR-3
NCI-H522 = test system: NCI-H522
RXF 393 = test system: RXF 393
NCI-H226 = test system: NCI-H226
SK-MEL-5 = test system: SK-MEL-5
SN12C = test system: SN12C
OVCAR-8 = test system: OVCAR-8
KM12 = test system: KM12
K562 = test system: K562
U-251 = test system: U-251
HCC 2998 = test system: HCC 2998
SK-OV-3 = test system: SK-OV-3
UO-31 = test system: UO-31
MDA-N = test system: MDA-N
SK-MEL-28 = test system: SK-MEL-28

Structure (SMILES)	GI50 (HL-60)	GI50 (A498)	GI50 (A549)	GI50 (BT-549)	GI50 (UACC-257)	GI50 (OVCAR-3)	GI50 (NCI-H522)	GI50 (RXF 393)	GI50 (NCI-H226)	GI50 (SK-MEL-5)	GI50 (SN12C)	GI50 (OVCAR-8)	GI50 (KM12)	GI50 (K562)	GI50 (U-251)	GI50 (HCC 2998)	GI50 (SK-OV-3)	GI50 (UO-31)	GI50 (MDA-N)	GI50 (SK-MEL-28)
CCCCCCCCCCCCCCNC(=O)CCC(NC(=O)c1ccc(N(C)Cc2cnc3nc(N)nc(N)c3n2)cc1)C(=O)NCCCCCCCCCCCCCC (stereo not given)	0.355 µM (active)	14.5 µM (inactive)	5.45 µM (inactive)	12.3 µM (inactive)	10.7 µM (inactive)	13.4 µM (inactive)	5.04 µM (inactive)	11.6 µM (inactive)	> 52.1 µM (inactive)	1.77 µM (inactive)	9.68 µM (inactive)	4.36 µM (inactive)	2.45 µM (inactive)	< 0.0185 µM (active)	2.24 µM (inactive)	6.01 µM (inactive)	10.4 µM (inactive)	13.8 µM (inactive)	0.244 µM (active)	13.8 µM (inactive)
NNc1nc2ccccc2c(=O)n1NC(=O)C(=O)Nc1cccc(C(F)(F)F)c1	> 100 µM (inactive)	> 100 µM (inactive)	> 100 µM (inactive)	> 100 µM (inactive)	> 100 µM (inactive)	> 100 µM (inactive)	> 100 µM (inactive)	> 100 µM (inactive)	> 100 µM (inactive)	> 100 µM (inactive)	> 100 µM (inactive)	> 100 µM (inactive)	> 100 µM (inactive)	> 100 µM (inactive)	> 100 µM (inactive)	> 100 µM (inactive)	> 100 µM (inactive)	> 100 µM (inactive)	> 100 µM (inactive)	> 100 µM (inactive)
COC(=O)c1c(CC(Cc2ccc3c(c2)CCCC3)C(=O)O)ccc2c1CCCC2 (stereo not given)	23 µM (inactive)	25 µM (inactive)	34.1 µM (inactive)	40.9 µM (inactive)	16 µM (inactive)	18.8 µM (inactive)	11.6 µM (inactive)	35.2 µM (inactive)	39.9 µM (inactive)	34.4 µM (inactive)	36.9 µM (inactive)	36.2 µM (inactive)	27.4 µM (inactive)	34.7 µM (inactive)	37.2 µM (inactive)	32.4 µM (inactive)	41 µM (inactive)	25.8 µM (inactive)	43.2 µM (inactive)	34.7 µM (inactive)
CCC(=O)Oc1c2ccsc2c(OC(=O)CC)c2ccsc12	0.201 µM (active)	3.1 µM (inactive)	2.05 µM (inactive)	0.174 µM (active)	0.171 µM (active)	0.351 µM (active)	0.474 µM (active)	1 µM (active)	2.06 µM (inactive)	0.0753 µM (active)	0.353 µM (active)	0.366 µM (active)	1.8 µM (inactive)	0.461 µM (active)	0.389 µM (active)	1.93 µM (inactive)	6.62 µM (inactive)	0.51 µM (active)	0.0555 µM (active)	0.178 µM (active)
CC(C)=CCC/C(C)=C/CC/C(C)=C/CC/C(C)=C/CC/C(C)=C/CC/C(C)=C/CC/C(C)=C/CC/C(C)=C/CC/C(C)=C/CO [SOLANESOL]	77.4 µM (inactive)	> 100 µM (inactive)	> 100 µM (inactive)	> 100 µM (inactive)	> 100 µM (inactive)	> 100 µM (inactive)	> 100 µM (inactive)	> 100 µM (inactive)	> 100 µM (inactive)	> 100 µM (inactive)	> 100 µM (inactive)	> 100 µM (inactive)	> 100 µM (inactive)	> 100 µM (inactive)	> 100 µM (inactive)	> 100 µM (inactive)	> 100 µM (inactive)	> 100 µM (inactive)	> 100 µM (inactive)	> 100 µM (inactive)
Oc1ccc(SCc2ccc(NCc3ccccc3)cc2)cc1	14.6 µM (inactive)	20.1 µM (inactive)	22.1 µM (inactive)	31.8 µM (inactive)	29.9 µM (inactive)	30 µM (inactive)	20 µM (inactive)	19.9 µM (inactive)	98.2 µM (inactive)	20.7 µM (inactive)	24.5 µM (inactive)	37.8 µM (inactive)	29.2 µM (inactive)	31.5 µM (inactive)	24.4 µM (inactive)	25.2 µM (inactive)	62.8 µM (inactive)	14.3 µM (inactive)	24.5 µM (inactive)	63.8 µM (inactive)
CN1CCc2ccccc2C1Cc1ccccc1NC(=O)c1sc2ccccc2c1Cl (stereo not given)	42.3 µM (inactive)	> 100 µM (inactive)	> 100 µM (inactive)	> 100 µM (inactive)	> 100 µM (inactive)	> 100 µM (inactive)	> 100 µM (inactive)	> 100 µM (inactive)	> 100 µM (inactive)	> 100 µM (inactive)	> 100 µM (inactive)	> 100 µM (inactive)	> 100 µM (inactive)	> 100 µM (inactive)	> 100 µM (inactive)	> 100 µM (inactive)	> 100 µM (inactive)	> 100 µM (inactive)	> 100 µM (inactive)	> 100 µM (inactive)
Cc1c(/C=N/NC(=S)Nc2ccc(Cl)cc2)c(=O)n(-c2ccccc2)n1C	> 100 µM (inactive)	22.5 µM (inactive)	33.7 µM (inactive)	0.0258 µM (active)	> 83.6 µM (inactive)	> 42 µM (inactive)	7.08 µM (inactive)	14.8 µM (inactive)	18.7 µM (inactive)	20.1 µM (inactive)	> 82.6 µM (inactive)	24.9 µM (inactive)	> 47.6 µM (inactive)	> 100 µM (inactive)	15.5 µM (inactive)	> 100 µM (inactive)	18.2 µM (inactive)	32.1 µM (inactive)	> 100 µM (inactive)	> 100 µM (inactive)
O=C1C(/N=N/c2ccc(-c3nc4ccccc4[nH]3)cc2)NC(=S)N1c1ccccc1 (stereo not given)	> 100 µM (inactive)	> 100 µM (inactive)	53.7 µM (inactive)	> 100 µM (inactive)	> 100 µM (inactive)	> 100 µM (inactive)	48.6 µM (inactive)	13.4 µM (inactive)	> 100 µM (inactive)	> 100 µM (inactive)	> 100 µM (inactive)	47.2 µM (inactive)	18 µM (inactive)	17.1 µM (inactive)	33 µM (inactive)	21.2 µM (inactive)	> 100 µM (inactive)	> 100 µM (inactive)	39.5 µM (inactive)	> 100 µM (inactive)
NS(=O)(=O)OCCCCCCCOS(N)(=O)=O	33 µM (inactive)	377 µM (inactive)	109 µM (inactive)	151 µM (inactive)	451 µM (inactive)	361 µM (inactive)	259 µM (inactive)	289 µM (inactive)	292 µM (inactive)	319 µM (inactive)	133 µM (inactive)	221 µM (inactive)	379 µM (inactive)	347 µM (inactive)	198 µM (inactive)	300 µM (inactive)	471 µM (inactive)	265 µM (inactive)	392 µM (inactive)	535 µM (inactive)
C=CC(=O)N1C/C(=C\c2ccc(F)cc2)C(=O)/C(=C/c2ccc(F)cc2)C1	0.728 µM (active)	0.568 µM (active)	0.979 µM (active)	0.336 µM (active)	1.19 µM (inactive)	0.36 µM (active)	0.476 µM (active)	0.185 µM (active)	0.352 µM (active)	0.811 µM (active)	0.454 µM (active)	0.28 µM (active)	0.193 µM (active)	0.185 µM (active)	0.188 µM (active)	0.267 µM (active)	0.711 µM (active)	0.849 µM (active)	0.157 µM (active)	0.634 µM (active)
